In US7550603B2, “1H-benzimidazole-4-carboxamides substituted with a quaternary carbon at the 2-position are potent PARP inhibitors” (Abbott Laboratories Inc., priority 2005, dated 2009):
Where two headings read alike, the source gives them in different places. Marks after values point to notes of the source that are not given here.

Experiments:
Female BALB/c mice = test: Deaths following lipopolysaccharide (LPS) challenge; format: in vivo; settings: 20 mg/kg LPS intravenous, monitored 72 hours
Description: Female BALB/c mice were dosed orally, twice a day with vehicle (0.2% HPMC), or drug at 30 mg/kg/day or 100 mg/kg/day. The mice were injected intravenous with 20 mg/kg LPS at 30 minutes after the first treatment dose. They were monitored for survival for 72 hours or until 80-90% lethality was observed.

[1] = tested on: peritoneum following zymosan challenge; settings: peritoneal lavage four hours post zymosan (2 mg/animal)
Description: Compounds were administered orally before an intraperitoneal zymosan injection (2 mg/animal).

[2] = target: Recombinant Human Poly(ADP-Ribose) Polymerase (PARP) (Homo sapiens, UniProt P09874); test: Inhibition of PARP (PARP1 assay, [3H]-NAD+ / biotinylated histone H1, FlashPlate); settings: read-out: PARP Inhibition Ki; Table 1; quaternary and non-quaternary compounds
Sequence of Recombinant Human Poly(ADP-Ribose) Polymerase (PARP) (P09874 whole entry): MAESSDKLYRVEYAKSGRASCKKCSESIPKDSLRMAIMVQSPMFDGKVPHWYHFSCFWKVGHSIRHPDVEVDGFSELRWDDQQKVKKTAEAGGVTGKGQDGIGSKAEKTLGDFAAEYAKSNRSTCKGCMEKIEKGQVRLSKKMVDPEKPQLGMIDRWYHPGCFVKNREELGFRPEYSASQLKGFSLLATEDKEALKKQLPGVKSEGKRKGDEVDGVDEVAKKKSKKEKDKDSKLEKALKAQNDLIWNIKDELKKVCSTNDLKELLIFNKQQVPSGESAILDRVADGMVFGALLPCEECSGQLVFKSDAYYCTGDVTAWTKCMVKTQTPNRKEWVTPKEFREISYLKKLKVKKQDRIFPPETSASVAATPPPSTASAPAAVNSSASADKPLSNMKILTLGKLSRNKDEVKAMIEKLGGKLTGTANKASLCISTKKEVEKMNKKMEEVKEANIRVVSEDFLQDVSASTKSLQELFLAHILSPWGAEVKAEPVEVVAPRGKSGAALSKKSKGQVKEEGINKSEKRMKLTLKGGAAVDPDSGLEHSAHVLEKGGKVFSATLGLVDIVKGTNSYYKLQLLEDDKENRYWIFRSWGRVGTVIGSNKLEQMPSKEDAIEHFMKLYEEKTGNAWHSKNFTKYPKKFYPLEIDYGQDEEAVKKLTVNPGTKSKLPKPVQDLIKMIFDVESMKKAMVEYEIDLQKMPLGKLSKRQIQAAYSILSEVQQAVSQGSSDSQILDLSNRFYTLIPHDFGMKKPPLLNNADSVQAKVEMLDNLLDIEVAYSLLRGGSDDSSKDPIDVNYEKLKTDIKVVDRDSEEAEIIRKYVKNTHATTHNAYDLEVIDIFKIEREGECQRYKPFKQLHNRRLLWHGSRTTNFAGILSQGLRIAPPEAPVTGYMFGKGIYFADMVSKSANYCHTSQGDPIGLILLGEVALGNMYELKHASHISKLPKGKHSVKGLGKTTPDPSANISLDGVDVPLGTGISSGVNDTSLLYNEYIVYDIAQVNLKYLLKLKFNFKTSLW
Description: Nicotinamide[2,5′,8-3H]adenine dinucleotide and strepavidin SPA beads were purchased from Amersham Biosiences (UK) Recombinant Human Poly(ADP-Ribose) Polymerase (PARP) purified from E. coli and 6-Biotin-17-NAD^+, were purchase from Trevigen, Gaithersburg, Md. NAD^+, Histone, aminobenzamide, 3-amino benzamide and Calf Thymus DNA (dcDNA) were purchased from Sigma, St. Louis, Mo. Stem loop oligonucleotide containing MCAT sequence was obtained from Qiagen. The oligos were dissolved to 1 mM in annealing buffer containing 10 mM Tris HCl pH 7.5, 1 mM EDTA, and 50 mM NaCl, incubated for 5 min at 95° C., and followed by annealing at 45° C. for 45 minutes. […] Biotinylated histone H1 was prepared by treating the protein with Sulfo-NHS-LC-Biotin from Pierce Rockford, Ill. The biotinylation reaction was conducted by slowly and intermittently adding 3 equivalents of 10 mM Sulfo-NHS-LC-Biotin to 100 μM Histone H1 in phosphate-buffered saline, pH 7.5, at 4° C. with gentle vortexing over 1 min followed by subsequent 4° C. incubation for 1 hr. Streptavidin coated (FlashPlate Plus) microplates were purchased from Perkin Elmer, Boston, Mass.
PARP1 assay was conducted in PARP assay buffer containing 50 mM Tris pH 8.0, 1 mM DTT, 4 mM MgCl2. […] Auto reactions utilizing SPA bead-based detection were carried out in 100 μl volumes in white 96 well plates.

[3] = 30 mg/kg/day orally twice a day
[4] = 100 mg/kg/day orally twice a day

Row | Compound | Deaths following LPS challenge (lethality) (Female BALB/c mice; [3]) | Deaths following LPS challenge (lethality) (Female BALB/c mice; [4]) | Percent decrease in Cell Influx relative to control ([1]; 30 mg/kg orally) [%] | Percent decrease in IL-1 level relative to control ([1]; 30 mg/kg orally) [%] | Percent decrease in Cell Influx relative to control ([1]; 100 mg/kg orally) [%] | Percent decrease in IL-1 level relative to control ([1]; 100 mg/kg orally) [%*] | Ki [2] [nM]
1 | CCCN1CCC(c2nc3c(C(N)=O)cccc3[nH]2)CC1 [2-(1-propylpiperidin-4-yl)-1H-benzimidazole-4-carboxamide] | 8/10 | 9/10 | 0 | 32 | 23 | 47 | –
2 | C[C@@]1(c2nc3c(C(N)=O)cccc3[nH]2)CCCN1 [Example 4, 2-[(2S)-2-methylpyrrolidin-2-yl]-1H-benzimidazole-4-carboxamide] | 8/10 | 4/10* | – | – | – | – | –
3 | NC(=O)c1cccc2[nH]c(C3CCN(CCc4ccccc4)C3)nc12 (stereo not shown) [2-[1-(2-phenylethyl)pyrrolidin-3-yl]-1H-benzimidazole-4-carboxamide] | – | – | – | – | – | – | 9.1
4 | NC(=O)c1cccc2[nH]c(C3CCN3)nc12 (stereo not shown) [2-azetidin-2-yl-1H-benzimidazole-4-carboxamide] | – | – | – | – | – | – | 34
